Target: T1, LATS2 (Homo sapiens, UniProt Q9NRM7)
T1 construct: purchased Thermo Fisher Scientific (Life Technologies) SelectScreen
Experiment: SelectScreen LanthaScreen
Type: binding
Conditions: 1 µM
In short: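 Percent values come from Thermo SelectScreen profiling of NU5455, combining activity and binding assays. CSF1R was run in Z'LYTE format at Km app ATP, and CAMK1 in Adapta format with ATP listed at 10.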

T1 sequence (Q9NRM7 whole entry): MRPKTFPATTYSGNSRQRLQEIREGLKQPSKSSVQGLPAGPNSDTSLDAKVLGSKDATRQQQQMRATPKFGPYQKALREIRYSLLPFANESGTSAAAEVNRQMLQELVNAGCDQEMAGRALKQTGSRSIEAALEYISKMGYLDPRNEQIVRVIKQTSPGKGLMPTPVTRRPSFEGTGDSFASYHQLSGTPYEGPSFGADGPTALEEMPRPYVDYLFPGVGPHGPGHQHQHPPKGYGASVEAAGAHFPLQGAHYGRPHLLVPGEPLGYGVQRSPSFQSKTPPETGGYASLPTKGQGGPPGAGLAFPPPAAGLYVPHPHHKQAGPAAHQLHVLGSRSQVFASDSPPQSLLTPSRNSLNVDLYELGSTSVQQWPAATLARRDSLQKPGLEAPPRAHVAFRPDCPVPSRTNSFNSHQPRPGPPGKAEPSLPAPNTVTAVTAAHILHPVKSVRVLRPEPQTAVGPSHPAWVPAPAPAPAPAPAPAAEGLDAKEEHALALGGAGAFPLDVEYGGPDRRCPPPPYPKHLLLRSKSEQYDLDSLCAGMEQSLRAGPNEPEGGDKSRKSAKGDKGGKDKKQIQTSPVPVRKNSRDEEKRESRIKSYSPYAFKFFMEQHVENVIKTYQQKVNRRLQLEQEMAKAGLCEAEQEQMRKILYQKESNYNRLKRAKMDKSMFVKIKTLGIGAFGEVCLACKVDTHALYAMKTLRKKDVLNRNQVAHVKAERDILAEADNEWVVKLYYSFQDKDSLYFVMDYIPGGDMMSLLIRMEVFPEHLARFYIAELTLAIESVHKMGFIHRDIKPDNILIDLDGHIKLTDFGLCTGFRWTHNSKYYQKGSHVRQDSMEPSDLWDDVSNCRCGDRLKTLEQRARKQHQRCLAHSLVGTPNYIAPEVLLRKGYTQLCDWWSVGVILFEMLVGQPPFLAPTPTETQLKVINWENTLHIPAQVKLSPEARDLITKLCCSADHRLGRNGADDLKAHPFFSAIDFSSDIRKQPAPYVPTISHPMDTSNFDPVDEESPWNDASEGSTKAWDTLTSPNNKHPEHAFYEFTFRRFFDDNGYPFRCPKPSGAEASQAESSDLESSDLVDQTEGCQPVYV

CN(C(=O)CN1CCOCC1)c1ccc2sc3c(-c4cccc5c(=O)cc(N6CC7CCC(C6)O7)oc45)cccc3c2c1 [NU5455]
% displacement: 4.7%

Reference: publication PMC6934184, “Selective DNA-PKcs inhibition extends the therapeutic index of localized radiotherapy and chemotherapy” (The Journal of Clinical Investigation, 2019)
